For 3 compounds, Activity results are on record in ChEMBL document CHEMBL1144093, “Neocrotocembranal from Croton oblongifolius” (1999).

Activity calls are given as the source filed them. The calls are words filed in the database; no cut-off is given here.

For one assay, the system named is P388. The assay is described as follows: Cytotoxicity against mouse P388 cells by MTT colorimetric method. The assay is classed as functional. On the technique in general: Formazan colour is commonly taken as a measure of viable cells.
Another assay deals with Platelet. As to the kind of experiment: Inhibition of thrombin-induced rabbit washed platelets aggregation by turbidimetric method. The assay is classed as functional, Oryctolagus cuniculus.

As for `C/C1=C\CC/C(C)=C/C=C(/C(C)C)CC/C(C(=O)O)=C/CC1`, the result with P388 was inactive. On to `C/C1=C\C=C(\C(C)C)CC/C(C=O)=C\CC/C(C)=C/CC1` [NEOCROTOCEMBRANAL], for which the values for the Activity with Platelet and in the assay on P388 were 47.21 µg/mL and 6.48 µg/mL, respectively. In the assay with P388, `C/C1=C\C=C(\C(C)C)CC/C(C(=O)O)=C\CC/C(C)=C/CC1` [NEOCROTOCEMBRANEIC ACID] registered an Activity of 41.47 µg/mL.
